Values quoted from earlier work in US8366600B2, “Polyamine enhanced formulations for triptan compound iontophoresis” (NuPathe Inc., priority 2008, dated 2013).

What was measured:
[1] = for Cmax: expected maximum concentration in the patient's plasma; for AUC: total plasma concentration
[2] = transdermal, iontophoresis vs passive

Cmax [1] [ng/mL] | AUC [1] | rate of iontophoretic transport relative to passive transport [2] [fold] | SMILES
52 | 310 ng·h/mL | – | CN(C)CCc1c[nH]c2ccc(CS(=O)(=O)N3CCCC3)cc12 [Almotriptan]
22 | 78 ng·h/mL | – | CN(C)CCc1c[nH]c2ccc(Cn3cncn3)cc12 [Rizatriptan]
200 | 1,300 ng · hr/mL | – | CN1CCC[C@@H]1Cc1c[nH]c2ccc(CCS(=O)(=O)c3ccccc3)cc12 [Eletriptan]
– | – | 385 | CNS(=O)(=O)Cc1ccc2[nH]cc(CCN(C)C)c2c1 [Sumatriptan]
4 | 20 ng·h/mL | – | CN(C)CCc1c[nH]c2ccc(C[C@H]3COC(=O)N3)cc12 [Zolmitriptan]
5 | 45 ng·h/mL | – | CN[C@@H]1CCc2[nH]c3ccc(C(N)=O)cc3c2C1 [Frovatriptan]
8 | 75 ng·h/mL | – | CNS(=O)(=O)CCc1ccc2[nH]cc(C3CCN(C)CC3)c2c1 [Naratriptan]
